Measured values as given in patent publication US6368793B1, “Metabolic selection methods” (MicroGenomics, Inc., priority 1998, dated 2002).

Assays:
Assay type in all cases: cell-based
K. oxytoca strain MGK003 = assay: Growth of tester strain MGK003 on AsA minimal medium with or without IPTG
Excerpt: To engineer K. oxytoca as a host strain for the selection of biocatalysts which produce AsA, the promoter of the yiaK-S operon was replaced with a DNA fragment that contained the trp-lac hybrid promoter of transcription, the lacO operator, and the lacI^q repressor gene (Brosius, J. 1992. Meth. Enzymol. 216:469-483). This allows the yiaK-S operon, and therefore AsA catabolism, to be turned ON and OFF in a tightly controlled manner in the presence or absence of IPTG, a non-metabolizable inducer of the lac promoter. Practically, a 5-way ligation was set up among: (i) the pMAK705 integration vector which carries a chloramphenicol resistance marker and the thermosensitive origin of replication from plasmid […] (Hamilton, C. M., et al., 1989. J. Bacteriol. 171:4617-4622); (ii) a 0.8 kb fragment containing the 5′ region of the yiaJ gene and its promoter sequences; (iii) the spectinomycin resistance marker retrieved from Staphylococcus aureus Tn554 (Murphy, E. 1985. Mol. Gen. Genet. 200:33-39) to follow integration events; (iv) the lacI^q-lacO-trc promoter fragment retrieved from pSE380 (InVitrogen, Carlsbad, Calif.); and (v) a 1 kb fragment containing the 5′ end of yiaK, including its ribosome binding site for translation initiation while excluding the promoter sequences of the yiaK-S operon (FIG. 10). […]

Klebsielia oxytoca = assay: Compound utilization of environmental isolates (growth on minimal medium); conditions: Kelbsiella oxytoca isolate
Procedure: Samples from diverse natural environments were collected to use for the isolation of microbes that can utilize ascorbic acid (AsA) as the sole carbon source. No bacterial species has previously been reported to grow on AsA minimal medium.
Environmental samples were collected from freshwater lakes, lemon and orange orchards, residential backyard soils, human and animal solid wastes.
Over 100 microbial isolates, capable of forming visible colonies within 20 hours of incubation at 30° C. on M9 minimal medium containing 0.5% AsA, were selected from these samples. These 100 isolates were then screened for their ability to grow on 2-Keto-L-Gulonate (2-KLG) minimal medium.
Thus, Kelbsiella oxytoca was retained as a candidate for genetic engineering of a host strain that can use AsA under controlled conditions for the selection of cloned microbial pathways from 2-KLG to AsA.

[1] = system: K. oxytoca strain MGK003 cosmid clones; assay: Growth of selected cosmid library clones of MGK003 on 2-KLG with or without IPTG; conditions: within 20 h at 37° C.
Procedure: Prior to transfection of K. oxytoca strain MGK003 with the packaging mixture, the tester strain was transformed with plasmid pCB382 expressing the E. coli lamB gene that functions as λ receptor, which appears to be absent or non-functional in most Klebsiella strains (De Vries, G. E., et al., 1984. Proc. Natl. Acad. Sci. USA 81:6080-6084). The resulting MGK003 [λ^s] strain was transfected with the packaged products as follows:
6. The remainder was centrifuged at 3000 g for 5 min and was resuspended in 1 mL of M9 minimal medium supplemented with 10 μM IPTG (IPTG concentration can be varied up to 100 μM), and aliquots (200 μL) were plated on M9 plates containing 0.5% 2-KLG and 50 μM IPTG. 7.
Plates were incubated at 37° C. for 36 h for selecting candidate pathways that would convert 2-KLG to AsA. (Alternatively, selection can be done at 30° C.)
Among 500,000 clones to which a first selection round was applied, approximately 100 colonies of various sizes appeared on 2-KLG/IPTG plates. These were re-streaked on: (i) LB-kanamycin to verify the presence of the cosmid vector; (ii) 2-KLG/IPTG; and (iii) 2-KLG lacking IPTG to determine if growth of the positive clones on 2-KLG was dependent upon the expression of AsA catabolism. […]

SMILES	Growth on M9 minimal medium (K. oxytoca strain MGK003; MGK003, AsA 0.25% and IPTG 10 to 100 μM)	Growth on M9 minimal medium (K. oxytoca strain MGK003; MGK003, AsA 0.25%, lacking IPTG)	Utilization as sole source of carbon and energy / growth (Klebsielia oxytoca)	Growth of two retained clones ([1]; 2-KLG without IPTG)	Growth of two retained clones ([1]; 2-KLG/IPTG)
O=C1O[C@H]([C@@H](O)CO)C(O)=C1O [AsA, ascorbic acid]	able to grow	no growth	could utilize AsA as its sole source of carbon and energy	–	–
O=C(O)C(=O)[C@@H](O)[C@H](O)[C@@H](O)CO [2-KLG, 2-keto-L-gulonate]	–	–	could not grow on 2-KLG	not on 2-KLG without IPTG	grew
